Data published in the RepoRT retention time repository.

Experiment: Waters XBridge BEH C18, 150 × 1 mm, 1.7 µm, 30 °C, 0.04 mL/min, estimated dead time 1.9 min; A: 79.7% water + 20% methanol + 0.3% acetic acid; B: 99.7% methanol + 0.3% acetic acid; gradient (min/%B) 0/0 17/58.7 17.2/100 20.2/100
Conditions: stereoisomer not certain

Q: With `COc1ccc2c3c1OC1C(O)CCC4C(C2)N(C)CCC341` (stereo unspecified) as the molecule, how does the LC retention time read?
A: The LC retention time was 4.6 min.

Q: With `CNC(C)Cc1ccc2c(c1)OCO2` (stereo unspecified) as the molecule, how does the LC retention time read?
A: Its LC retention time is 8.3 min.

Q: With `COc1cc(CCN)cc(OC)c1OC` as the molecule, how does the LC retention time read?
A: Its LC retention time is 7 min.

Q: With `CCCc1nn(C)c2c(=O)[nH]c(-c3cc(S(=O)(=O)N4CCN(C)CC4)ccc3OCC)nc12` as the molecule, how does the LC retention time read?
A: Its LC retention time is 18.8 min.

Q: With `CN1C(=O)CCC1c1cccnc1` (stereo unspecified) as the molecule, how does the LC retention time read?
A: Its LC retention time is 3.6 min.

Q: With `Oc1ccc2c3c1OC1C(O)C=CC4C(C2)NCCC341` (stereo unspecified) as the molecule, how does the LC retention time read?
A: Its LC retention time is 3.5 min.

Q: With `CC(=O)Oc1ccc2c3c1OC1C(OC(C)=O)C=CC4C(C2)N(C)CCC341` (stereo unspecified) as the molecule, how does the LC retention time read?
A: Its LC retention time is 11.4 min.

Q: For `CNC(C)C(O)c1ccccc1` (stereo unspecified), which LC retention time is on record?
A: The LC retention time was 5.9 min.

Q: Which LC retention time does the source give for `COc1ccc2c3c1OC1C(O)C=CC4C(C2)N(C)CCC341` (stereo unspecified) here?
A: Its LC retention time is 4.8 min.

Q: For `CN1CCCC1c1cccnc1` (stereo unspecified), which LC retention time is on record?
A: Its LC retention time is 3.3 min.

Q: For `CC(N)Cc1ccc2c(c1)OCO2` (stereo unspecified), which LC retention time is on record?
A: The LC retention time was 8.1 min.

Q: For `COC(=O)C1C2CCC(CC1OC(=O)c1ccccc1)N2` (stereo unspecified), which LC retention time is on record?
A: The LC retention time was 12.8 min.

Q: For `CC(N)C(O)c1ccccc1` (stereo unspecified), which LC retention time is on record?
A: Its LC retention time is 5.2 min.

Q: With `CN1C2CC=C(C(=O)O)C1CC2` (stereo unspecified) as the molecule, how does the LC retention time read?
A: The LC retention time was 3 min.

Q: With `CN(C)CCC=C1c2ccccc2CSc2ccccc21` as the molecule, how does the LC retention time read?
A: Its LC retention time is 19.2 min.

Q: Which LC retention time does the source give for `CCOC(=O)C1C(OC(=O)c2ccccc2)CC2CCC1N2C` (stereo unspecified) here?
A: The LC retention time was 13.9 min.

Q: For `CCC(=O)C(CC(C)N(C)C)(c1ccccc1)c1ccccc1` (stereo unspecified), which LC retention time is on record?
A: The LC retention time was 20.2 min.

Q: With `CCNC(C)Cc1ccc2c(c1)OCO2` (stereo unspecified) as the molecule, how does the LC retention time read?
A: Its LC retention time is 9.4 min.

Q: With `COc1ccc2c3c1OC1C(=O)CCC4(O)C(C2)N(C)CCC314` (stereo unspecified) as the molecule, how does the LC retention time read?
A: The LC retention time was 5.4 min.

Q: With `CC(N)Cc1ccccc1` (stereo unspecified) as the molecule, how does the LC retention time read?
A: The LC retention time was 7.5 min.

Q: For `CC(=O)OC1C=CC2C3Cc4ccc(O)c5c4C2(CCN3C)C1O5` (stereo unspecified), which LC retention time is on record?
A: The LC retention time was 6.4 min.

Q: Which LC retention time does the source give for `c1ccc(C2(N3CCCCC3)CCCCC2)cc1` here?
A: Its LC retention time is 14.7 min.

Q: For `CNC(C)Cc1ccccc1` (stereo unspecified), which LC retention time is on record?
A: Its LC retention time is 7.9 min.

Q: For `Cn1c(=O)c2c(ncn2C)n(C)c1=O`, which LC retention time is on record?
A: Its LC retention time is 9 min.

Q: For `CCC(Cc1ccc2c(c1)OCO2)NC` (stereo unspecified), which LC retention time is on record?
A: Its LC retention time is 10.3 min.

Q: Which LC retention time does the source give for `COC12CCC3(CC1C(C)(O)C(C)(C)C)C1Cc4ccc(O)c5c4C3(CCN1CC1CC1)C2O5` (stereo unspecified) here?
A: The LC retention time was 17.3 min.

Q: With `CCC(N)Cc1ccc2c(c1)OCO2` (stereo unspecified) as the molecule, how does the LC retention time read?
A: Its LC retention time is 10.3 min.

Q: Which LC retention time does the source give for `Cn1c(=O)[nH]c2ncn(C)c2c1=O` here?
A: Its LC retention time is 6.1 min.

Q: With `COc1ccc(C(CN(C)C)C2(O)CCCCC2)cc1` (stereo unspecified) as the molecule, how does the LC retention time read?
A: The LC retention time was 15.4 min.

Q: For `CCOP(=O)(Sc1ccccc1)Sc1ccccc1`, which LC retention time is on record?
A: Its LC retention time is 16.7 min.

Q: Which LC retention time does the source give for `COC(=O)C1C(OC(=O)c2ccccc2)CC2CCC1N2C` (stereo unspecified) here?
A: Its LC retention time is 11.8 min.

Q: With `c1ccc(CN2CCNCC2)cc1` as the molecule, how does the LC retention time read?
A: The LC retention time was 4.3 min.

Q: Which LC retention time does the source give for `CCC(=O)OC(Cc1ccccc1)(c1ccccc1)C(C)CN(C)C` (stereo unspecified) here?
A: The LC retention time was 19.6 min.

Q: With `CNC(C)C(=O)c1ccccc1` (stereo unspecified) as the molecule, how does the LC retention time read?
A: Its LC retention time is 5.6 min.

Q: Which LC retention time does the source give for `CCC(=O)OC(Cc1ccccc1)(c1ccccc1)C(C)CNC` (stereo unspecified) here?
A: The LC retention time was 20.1 min.

Q: Which LC retention time does the source give for `COc1cccc(C2(O)CCCCC2CN(C)C)c1` (stereo unspecified) here?
A: Its LC retention time is 11.4 min.

Q: For `COc1ccc2c3c1OC1C(O)C=CC4C(C2)NCCC341` (stereo unspecified), which LC retention time is on record?
A: Its LC retention time is 5.1 min.

Q: With `Nc1ccc2c(c1)C(c1ccccc1)=NCC(=O)N2` as the molecule, how does the LC retention time read?
A: The LC retention time was 6.2 min.

Q: With `Cc1ccccc1-n1c(C)nc2ccccc2c1=O` as the molecule, how does the LC retention time read?
A: Its LC retention time is 20.2 min.

Q: Which LC retention time does the source give for `CN1CCC23c4c5ccc(O)c4OC2C(O)C=CC3C1C5` (stereo unspecified) here?
A: The LC retention time was 3.5 min.

Q: For `O=C1CN=C(c2ccccc2)c2cc([N+](=O)[O-])ccc2N1`, which LC retention time is on record?
A: The LC retention time was 19.8 min.

Q: With `CN1C2CCC1C(C(=O)O)C(OC(=O)c1ccccc1)C2` (stereo unspecified) as the molecule, how does the LC retention time read?
A: Its LC retention time is 10.7 min.

Q: Which LC retention time does the source give for `CN1CCC23c4c5ccc(O)c4OC2C(=O)CCC3(O)C1C5` (stereo unspecified) here?
A: Its LC retention time is 3.6 min.

Q: With `CCN(CC)C(=O)C1C=C2c3cccc4[nH]cc(c34)CC2N(C)C1` (stereo unspecified) as the molecule, how does the LC retention time read?
A: Its LC retention time is 13.8 min.

Q: Which LC retention time does the source give for `CNCC1CCCCC1(O)c1cccc(OC)c1` (stereo unspecified) here?
A: Its LC retention time is 12.5 min.

Q: Which LC retention time does the source give for `COC(=O)C1=CCC2CCC1N2C` (stereo unspecified) here?
A: The LC retention time was 3.6 min.
